Legend:
[1] = system: female Sprague Dawley rats previously treated with olanzapine; experiment: Body weight, food intake, body composition and liver triglycerides of rats previously treated with olanzapine and switched (Example 2.2); format: in vivo, rat
Description: Rats were singly housed in cages with sawdust bedding and enrichment at an ambient temperature of 21±2° C. Upon arrival (Thursday), rats were weighed and given wet mash to aid recovery from transport. Rats were weighed the following day and the Monday of the following week. Animals were maintained on a reverse-phase light-dark cycle (lights off for 8 h from 10:00-18:00 h) during which time the room was illuminated by red light. Rats were weighed on the Friday and Monday of the following week. […] All animals had free access to a high-fat powdered diet (VRF1 plus 20% lard) and all rats had access to filtered water at all times. The diets were contained in glass feeding jars with aluminum lids (Solmedia Laboratory Suppliers, Romford, Essex). […] Animals were accustomed to these conditions for at least two weeks before experimentation.
Dosing was timed to start at approximately 08:45 so that the mid-point was approximately the time of lights out. Animals, food and water were weighed at the time of dosing. Towards the end of this baseline period, animals were weighed (to the nearest 0.1 g using an electronic top-pan balance) and allocated into 2 weight-matched treatment groups by a Statistician.
Dosing began at approximately 08:45 h each day (0 h), i.e., so the mid-point of dosing was approximately at the time of lights out. This strategy was taken to maximize the impact of the drugs on food intake. Dosing continued for 7 consecutive days and rats were weighed (to the nearest 0.1 g) every day at 0 h. Prior to and at the completion of each dosing session animals were examined and any overt behavioral/physiological effects or other relevant observations regarding the condition of the animals was recorded manually. […] and food intake were assessed daily.
Dosing began at approximately 08:45 h each day (0h), i.e., the mid-point of dosing was approximately at the time of lights out. Body weight, food and water intake was recorded daily at the time of dosing. All rats were observed before and after dosing and comments on condition were noted as appropriate. On the afternoon of Day 14 (approx. 16:00) animals were fasted to a timed schedule. The experiment ended the following morning on Day 15. On the morning of Day 15, final readings were undertaken 16 h post-fast (i.e., body weight measurements). Animals were then dosed (as described). Four hours later, two blood samples (20 µL and 1 mL) were taken from the lateral tail vein into tubes containing lithium heparin. The 20 µL sample was stored frozen (whole blood) prior to determination of HbAlc (Roche Tina-quant A2c Gen 3, Cobas C111). […] Animals were then terminated by a Schedule 1 method (exposure to an increasing concentration of CO2 with death confirmed by cervical dislocation). A terminal blood sample (circa 4 mL) was taken into EDTA-coated tube and a single plasma aliquot (approximately 1 mL) was stored frozen (approx. -80° C.) in a clean aliquot tube. The liver was dissected and the caudate lobe removed. Both the caudate lobe and the remaining liver was weighed and stored frozen separately (on dry ice and then transferred to a freezer at approx. -80° C.). The caudate lobe underwent further analysis of liver triglycerides. Carcasses were stored frozen (approx. -20° C.) for potential body composition analysis. Metabolic parameters including fasting glucose and insulin levels, liver triglycerides and body fat composition were determined at the end of the study.

[2] = system: female Sprague Dawley rats fed on a high-fat powdered diet; experiment: Body weight, food intake, body composition and liver triglycerides, once daily dosing up to 15 days, high-fat diet rats (Example 2.1); format: in vivo, rat; conditions: Olanzapine 3 mg/kg po
Description: Body weight and food and water intake were assessed daily.
Animals: Seventy-four (2 spares) female Sprague Dawley rats (weight range 200-300 g) were ordered from Charles River, Margate, Kent. Rats were singly housed in cages with sawdust bedding and enrichment at an ambient temperature of 21 ± 2° C. Upon arrival (Thursday), rats were weighed and given wet mash to aid recovery from transport. Rats were weighed the following day and on the Monday of the following week. Animals were maintained on a reverse-phase light-dark cycle (lights off for 8 hours from 10:00-18 :00 h) during which time the room was illuminated by red light. Rats were weighed on the Friday and Monday of the following week. […] Except for 12 animals (Group F), all animals had free access to a high-fat powdered diet (VRF1 plus 20% lard). […] All rats had access to filtered water at all times. The diets were contained in glass feeding jars with aluminum lids (Solmedia Laboratory Suppliers. Romford. Essex). […] Animals were accustomed to these conditions for at least two weeks before experimentation.
Experimental Procedure: Animals underwent a 3-day baseline run-in period during which time all rats were dosed once a day with vehicle. Dosing was timed to start at approximately 08:45 so that the mid-point was approximately the time of lights out. Animals, food and water were weighed at the time of dosing. Towards the end of the baseline period, animals were weighed (to the nearest 0.1 g using an electronic top-pan balance) and allocated by a statistician. The spare animals were humanely withdrawn from the study.
Dosing (in a randomized order) began at approximately 08:45 h each day (0 h), i.e., the mid-point of dosing is approximately at the time of lights out. Body weight, food and water intake was recorded daily at the time of dosing. All rats were observed before and after dosing and comments on condition were noted as appropriate. On the afternoon of Day 14 (approx. 16:00) animals were fasted to a timed schedule. The experiment ended the following morning on Day 15. On the morning of Day 15, final readings were undertaken 16 hour post-fast (i.e., body weight measurements). Animals were then dosed (as described). Four hours later, a blood sample (1 mL) was taken from the lateral tail vein into tubes containing lithium heparin. […] Animals were then terminated by a Schedule 1 method (exposure to an increasing concentration of C02 with death confirmed by cervical dislocation). A terminal blood sample (circa 4 mL) was taken into an EDTA-coated tube and a single plasma aliquot (approximately 1 mL) was stored frozen (approx. -80° C.) in a clean aliquot tube. The liver was dissected and the caudate lobe removed. Both the caudate lobe and the remaining liver were weighed and stored frozen separately (on dry ice and then transferred to a freezer at approx. -80° C.). The caudate lobe underwent option further analysis of liver triglycerides.

[3] = Food effect on the pharmacokinetics of 50 mg tablet (Example 10); conditions: 50 mg Compound 1 tablet
Description: Methods: The study used an open-label randomized 2-period crossover design in 20 healthy volunteers. Subjects were fasted overnight then randomly assigned to 1 of 2 dosing sequences, A ➔ B or B ➔ A, where A was the fasted condition and B was the fed condition. […] The fed and fasted dosing periods were separated by one week. Serial plasma samples from each period were collected for PK analysis.
Solid phase extraction was used for sample cleanup. Stable isotope-labeled internal standards were used for corresponding analytes. Noncompartment PK parameters were calculated using Phoenix WinNonlin® software.

[4] = Week 1 (Day 1-8), Olanzapine 3 mg/kg po
[5] = Week 2 (Day 8-13), after olanzapine Day 1-7, 3 mg/kg po
[6] = Week 2 (Day 8-14), continued Olanzapine 3 mg/kg po
[7] = from Day 8, after olanzapine Day 1-7, 3 mg/kg po

For `Cc1cc2c(s1)Nc1ccccc1N=C2N1CCN(C)CC1` [Olanzapine, olanzapine], which “increase in body weight, previously shown in-house in this model” value ([1]; Olanzapine 3 mg/kg po) is on record?
Its value is 4-6%.

And the “Averages of daily food intakes, Difference vs Vehicle (A)” value ([1]; Week 1 (Day 1-7), 3 mg/kg po)?
Its value is 1.90 g/day.

What about the “Averages of daily food intakes, Mean” value ([1]; Week 1 (Day 1-7), 3 mg/kg po) of the same compound?
Its value is 17.21 g/day.

And the “Changes in body weights Difference vs Vehicle (A)” value [1, 4]?
The value was 13.07 g.

And the “Changes in body weights Mean” value [1, 4]?
The value was 25.48 g.

What about the “Averages of daily food intakes, Difference vs Vehicle (A)” value [1, 5] of the same compound?
Its value is 1.60 g/day.

And the “Averages of daily food intakes, Mean” value [1, 5]?
The value was 16.73 g/day.

What about the “Changes in body weights Difference vs Vehicle (A)” value [1, 6] of the same compound?
Its value is 7.55 g.

And the “Changes in body weights Mean” value [1, 6]?
Its value is 16.70 g.

What about the “Fat in carcass, % change vs Vehicle (A)” value [1, 7] of the same compound?
The value was 18.3%.

And the “Fat in carcass, Difference vs Vehicle (A)” value [1, 7]?
Its value is 2.4%.

And the “Fat in carcass, Mean” value [1, 7]?
The value was 15.8%.

What about the “Fat per rat, % change vs Vehicle (A)” value [1, 7] of the same compound?
Its value is 22.7%.

What about the “Fat per rat, Difference vs Vehicle (A)” value [1, 7] of the same compound?
The value was 8.0 g.

What about the “Fat per rat, Mean” value [1, 7] of the same compound?
The value was 43.3 g.

And the “Final carcass weight, % change vs Vehicle (A)” value [1, 7]?
Its value is 4.1%.

What about the “Final carcass weight, Mean” value [1, 7] of the same compound?
The value was 271.9 g.

And the “Liver triglycerides (µmol total), % vs Vehicle (A)” value [1, 7]?
The value was 100.4%.

And the “Liver triglycerides (µmol/g), % vs Vehicle (A)” value [1, 7]?
The value was 100.0%.

And the “Liver triglycerides, Mean” value [1, 7]?
The value was 348 µmol total.

And the “Protein in carcass, % change vs Vehicle (A)” value [1, 7]?
Its value is -2.4%.

And the “Protein in carcass, Difference vs Vehicle (A)” value [1, 7]?
Its value is -0.49%.

What about the “Protein in carcass, Mean” value [1, 7] of the same compound?
Its value is 20.24%.

And the “Protein per rat, % change vs Vehicle (A)” value [1, 7]?
The value was 1.6%.

And the “Protein per rat, Difference vs Vehicle (A)” value [1, 7]?
Its value is 0.9 g.

And the “Protein per rat, Mean” value [1, 7]?
The value was 55.0 g.

What about the “Water in carcass, % change vs Vehicle (A)” value [1, 7] of the same compound?
The value was -3.6%.

And the “Water in carcass, Difference vs Vehicle (A)” value [1, 7]?
Its value is -2.2%.

What about the “Water in carcass, Mean” value [1, 7] of the same compound?
The value was 60.4%.

And the “Water per rat, % change vs Vehicle (A)” value [1, 7]?
The value was 0.3%.

What about the “Water per rat, Difference vs Vehicle (A)” value [1, 7] of the same compound?
Its value is 0.6 g.

What about the “Water per rat, Mean” value [1, 7] of the same compound?
The value was 163.9 g.

And the “Fat in carcass % change vs vehicle” value [2]?
Its value is 8.8%.

What about the “Fat in carcass Difference vs vehicle” value [2] of the same compound?
Its value is 1.4%.

And the “Fat in carcass, Mean” value [2]?
Its value is 16.9%.

What about the “Fat per rat % change vs vehicle” value [2] of the same compound?
Its value is 12.4%.

And the “Fat per rat Difference vs vehicle” value [2]?
Its value is 5.2 g.

What about the “Fat per rat, Mean” value [2] of the same compound?
Its value is 47.0 g.

What about the “Liver Total triglycerides Mean” value [2] of the same compound?
Its value is 227.46 µmol.

And the “Liver Total triglycerides vs vehicle” value [2]?
Its value is 85.6.

What about the “Liver triglycerides % vs vehicle” value [2] of the same compound?
The value was 77.1%.

And the “Liver triglycerides, Mean” value [2]?
Its value is 25.07 µmol/g.

And the “Protein in carcass % change vs vehicle” value [2]?
The value was -1.8%.

What about the “Protein in carcass Difference vs vehicle” value [2] of the same compound?
Its value is -0.38%.

What about the “Protein in carcass, Mean” value [2] of the same compound?
Its value is 20.46%.

What about the “Protein per rat % change vs vehicle” value [2] of the same compound?
The value was 3.5%.

What about the “Protein per rat Difference vs vehicle” value [2] of the same compound?
Its value is 1.9 g.

What about the “Protein per rat, Mean” value [2] of the same compound?
Its value is 56.9 g.

And the “Water in carcass % change vs vehicle” value [2]?
The value was -1.4%.

And the “Water in carcass Difference vs vehicle” value [2]?
The value was -0.8%.

And the “Water in carcass, Mean” value [2]?
Its value is 59.9%.

What about the “Water per rat % change vs vehicle” value [2] of the same compound?
The value was 3.6%.

What about the “Water per rat Difference vs vehicle” value [2] of the same compound?
The value was 5.8 g.

What about the “Water per rat, Mean” value [2] of the same compound?
The value was 166.5 g.

What about the “Daily food intake % change” value ([2]; Overall (Day 1-13)) of the same compound?
Its value is 13.6%.

What about the “Daily food intake Difference” value ([2]; Overall (Day 1-13)) of the same compound?
Its value is 2.0 g/day.

What about the “Daily food intake Mean” value ([2]; Overall (Day 1-13)) of the same compound?
The value was 16.4 g/day.

What about the “Changes in body weights Difference vs vehicle” value ([2]; Overall (Day 1-14)) of the same compound?
Its value is 21.5 g.

What about the “Changes in body weights Mean” value ([2]; Overall (Day 1-14)) of the same compound?
Its value is 33.2 g.

Which “geometric mean ratio for AUC0-∞ (fed/fasted)” value [3] does the source give for `NC[C@@H]1OCCc2ccsc21` [metabolite] here?
The value was 98.29%.

What about the “geometric mean ratio of Cmax (fed/fasted)” value [3] of the same compound?
Its value is 94.77%.

And the “ratio of N-desmethyl active metabolite to parent Compound 1, fed versus fasted” value [3]?
The value was “no change”.
